Measurements published in BindingDB's records for patent US20240109893 (Shanghai Kechow Pharma, 2024).

Molecular target: GTPase KRas [G12C] (Homo sapiens, UniProt P01116, G12C)
Assay: KRAS G12C-GDP Exchange Assay
Method: 1. […] 2. […] The IC50 (median inhibitory concentration) of the compound was obtained by the following non-linear fitting formula: Y=Bottom+(Top−Bottom)/(1+10^((Log IC50−X)*Hill Slope)), and the data were analyzed by Graphpad 6-0 software.

Chain of GTPase KRas [G12C] (P01116 whole entry G12C): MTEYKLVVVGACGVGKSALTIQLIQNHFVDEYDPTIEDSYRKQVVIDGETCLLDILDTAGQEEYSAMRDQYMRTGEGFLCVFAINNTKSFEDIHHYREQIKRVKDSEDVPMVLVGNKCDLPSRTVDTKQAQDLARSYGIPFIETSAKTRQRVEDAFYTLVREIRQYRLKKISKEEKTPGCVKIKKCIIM

Q: Which IC50 does the source give for `C=CC(=O)N1CCN(c2nc(OC[C@@H]3CCCN3C)nc3cc(-c4cccc5cccc(Cl)c45)c(F)cc23)C[C@@H]1CC#N` [US20240109893, Example 394] here?
A: 1.44 nM
